# Measurements taken from publication PMC8260228, “Two de novo GluN2B mutations affect multiple NMDAR-functions and instigate severe pediatric encephalopathy” (eLife, 2021).
# Like-named read-outs stand apart in the source and are kept apart here.
# Tests used:
# hGluN1a + hGluN2Bwt [1] = target: T1, hGluN1a + hGluN2Bwt (Homo sapiens, UniProt Q05586+Q13224); test: Mg2+ dose-response (block), TEVC in Xenopus oocytes; type: cell-based; set-up: expressed in transfected cells; host or cells: Xenopus laevis oocytes injected with in vitro transcribed mRNA (pCI-Neo plasmids produced by the Traynelis lab); settings: 5 mM glutamate, 100 μM glycine, −60 mV; read-out: Mg^+2 IC50 (−60 mV)
# GluN1 = tested on: GluN1; set-up: method as in Traynelis et al., 2010; settings: ref Traynelis et al., 2010; cited from earlier work
# hGluN1a + hGluN2Bwt [2] = target: T1, hGluN1a + hGluN2Bwt; test: Assessing potentiation by D-serine, TEVC in oocytes; settings: 100 μM D-serine, 5 mM glutamate, 1 μM glycine
# hGluN1a + hGluN2Bwt [3] = target: T1, hGluN1a + hGluN2Bwt; test: Glutamate dose-response, TEVC in Xenopus oocytes; type: cell-based; set-up: expressed in transfected cells; host or cells: Xenopus laevis oocytes injected with in vitro transcribed mRNA (pCI-Neo plasmids produced by the Traynelis lab)
# Text: All Experiments were approved by the Technion Institutional Animal Care and Use Committee (permit SB, no. IL-129-09-17). Xenopus laevis oocytes were harvested, prepared, and injected with mRNA as previously described ([Berlin et al., 2020]). Briefly, oocytes were obtained from anesthetized (by 0.4% tricaine solution) female frogs. Oocytes were extracted from ovaries, defolliculated by collagenase treatment in ND96 Ca^+2-free solution (in mM: 96 NaCl, 2 KCL, 1 MgCl2, 5 HEPES, pH 7.4) for about 45 min at RT. Cells were washed with ND96 Ca^+2 -free and transferred to enriched ND96 (NDE) consisting of ND96 supplemented with 1.8 mM CaCl2, 2.5 mM sodium pyruvate, 100 μg/ml streptomycin and 62.75 μg/ml penicillin. Stage V oocytes were manually isolated, incubated overnight at 18°C and injected with mRNA the next day.
# For mRNA preparation, DNA plasmids were linearized by restriction enzymes (NotI), followed by in vitro mRNA transcription using mMessage-mMachine T7 kit (Thermo Scientific, Cat.#AM1344), as previously described ([Berlin et al., 2010]). mRNA concentrations were determined using a spectrophotometer. […]
# Data were analyzed by Clampfit software (Molecular Devices, USA) and were fitted using Sygmaplot 11 (Systat software, inc) to Hill’s equation (Equation 1) from which we extracted EC50 values.
# GluN2B-mutant = tested on: GluN2B-mutant; set-up: method as in Soto et al., 2019; settings: ref Soto et al., 2019; cited from earlier work
# GluN2B-E413G = tested on: GluN2B-E413G; set-up: method as in Swanger et al., 2016; settings: read-out: glutamate potency EC50; ref Swanger et al., 2016; cited from earlier work
# GRIN2A mutation D731N = tested on: GRIN2A mutation D731N; set-up: method as in Swanger et al., 2016; settings: ref Swanger et al., 2016; cited from earlier work
# hGluN1a + hGluN2Bwt [4] = target: T1, hGluN1a + hGluN2Bwt; settings: read-out: Glycine EC50; 5 mM glutamate
# Description: Two electrode voltage clamp (TEVC) recordings were carried-out 24–72 hr following mRNA injections, as previously described ([Berlin et al., 2011]). Recordings were performed using commercial amplifier (Warner Instruments, USA) and Digitizer (Digidata-1550B; Molecular Devices, USA), controlled by pClamp10 software (Molecular Devices, USA). Electrodes consisted of pulled glass capillaries (by puller- Narishige, Japan) with chlorinated silver wire, filled with 3M KCl. Oocytes were clamped to −60 mV and perfused with nominally Mg^+2-free barth solution (in mM): 100 NaCl, 0.3 BaCl2, 5 HEPES, pH 7.3 (adjusted with NaOH).
# Data were analyzed by Clampfit software (Molecular Devices, USA) and were fitted using Sygmaplot 11 (Systat software, inc) to Hill’s equation (Equation 1) from which we extracted EC50 values. […] IC50 values for Mg^+2 and proton inhibition were extrapolated by fitting the results to Hill’s equation (Equation 4). τoff values for apparent open probability were extrapolated by fitting the result to a mono-exponential function (Equation 5). t10-90% results were obtained by placing cursors at beginning and end of responses, then automatically assessed by the Clampfit software (under statistics, positive going). mEPSCs were detected off-line using pCLAMP 10’s template search. Briefly, 5–10 ‘minis’ were identified and selected by user, followed by an automated search. […]
# hGluN1a + hGluN2Bwt [5] = target: T1, hGluN1a + hGluN2Bwt; test: Apparent open probability: MK-801 block kinetics, TEVC in oocytes; type: cell-based; set-up: expressed in transfected cells; host or cells: Xenopus laevis oocytes injected with in vitro transcribed mRNA (pCI-Neo plasmids produced by the Traynelis lab); settings: 1 μM MK-801 after 3 mM glutamate, 100 μM glycine
# Description: MK-801 (activity-dependent pore blocker of GluNRs) was purchased from Alomone labs (cat.# M-230). One mM stock solutions were made by diluting lyophilized MK-801 in barth solution. […] Deactivation kinetics were fitted from which we extracted t10-90% or deactivation constant, τoff.
# Data were analyzed by Clampfit software (Molecular Devices, USA) and were fitted using Sygmaplot 11 (Systat software, inc) to Hill’s equation (Equation 1) from which we extracted EC50 values. […] IC50 values for Mg^+2 and proton inhibition were extrapolated by fitting the results to Hill’s equation (Equation 4). τoff values for apparent open probability were extrapolated by fitting the result to a mono-exponential function (Equation 5). t10-90% results were obtained by placing cursors at beginning and end of responses, then automatically assessed by the Clampfit software (under statistics, positive going). mEPSCs were detected off-line using pCLAMP 10’s template search. Briefly, 5–10 ‘minis’ were identified and selected by user, followed by an automated search. All automatically identified minis were validated by user.
# GluN2B-subunit = settings: read-out: spermine reported EC50; ref Mony et al., 2011; cited from earlier work
# hGluN1a + hGluN2Bwt [6] = target: T1, hGluN1a + hGluN2Bwt
# Description: With the intent to rescue (i.e. increase) current amplitudes, we turned our attention toward spermine— a naturally-occurring and highly specific GluN2B-subunit potentiator ([Mony et al., 2009]; [Mony et al., 2011]). […] To further address this issue we employed arcaine-sulfate (a competitive antagonist of the polyamine site [[Gomes et al., 2014]; [Araneda et al., 1999]; [Reynolds, 1990]]).
# Spermine was purchased from Sigma-Aldrich (Cat. #S3256). A total of 200 mM stock solutions were made by diluting powdered spermine in barth solution at different pHs (6.3 and 7.3). […] Arcaine sulfate was purchased from Alomone labs (Cat. # 14923-17-2). Ten mM solutions were made by diluting lyophilized Arcaine sulfate in barth solution at pH = 6.5.
# T1 sequence (Q13224 27-1484, other chains not shown): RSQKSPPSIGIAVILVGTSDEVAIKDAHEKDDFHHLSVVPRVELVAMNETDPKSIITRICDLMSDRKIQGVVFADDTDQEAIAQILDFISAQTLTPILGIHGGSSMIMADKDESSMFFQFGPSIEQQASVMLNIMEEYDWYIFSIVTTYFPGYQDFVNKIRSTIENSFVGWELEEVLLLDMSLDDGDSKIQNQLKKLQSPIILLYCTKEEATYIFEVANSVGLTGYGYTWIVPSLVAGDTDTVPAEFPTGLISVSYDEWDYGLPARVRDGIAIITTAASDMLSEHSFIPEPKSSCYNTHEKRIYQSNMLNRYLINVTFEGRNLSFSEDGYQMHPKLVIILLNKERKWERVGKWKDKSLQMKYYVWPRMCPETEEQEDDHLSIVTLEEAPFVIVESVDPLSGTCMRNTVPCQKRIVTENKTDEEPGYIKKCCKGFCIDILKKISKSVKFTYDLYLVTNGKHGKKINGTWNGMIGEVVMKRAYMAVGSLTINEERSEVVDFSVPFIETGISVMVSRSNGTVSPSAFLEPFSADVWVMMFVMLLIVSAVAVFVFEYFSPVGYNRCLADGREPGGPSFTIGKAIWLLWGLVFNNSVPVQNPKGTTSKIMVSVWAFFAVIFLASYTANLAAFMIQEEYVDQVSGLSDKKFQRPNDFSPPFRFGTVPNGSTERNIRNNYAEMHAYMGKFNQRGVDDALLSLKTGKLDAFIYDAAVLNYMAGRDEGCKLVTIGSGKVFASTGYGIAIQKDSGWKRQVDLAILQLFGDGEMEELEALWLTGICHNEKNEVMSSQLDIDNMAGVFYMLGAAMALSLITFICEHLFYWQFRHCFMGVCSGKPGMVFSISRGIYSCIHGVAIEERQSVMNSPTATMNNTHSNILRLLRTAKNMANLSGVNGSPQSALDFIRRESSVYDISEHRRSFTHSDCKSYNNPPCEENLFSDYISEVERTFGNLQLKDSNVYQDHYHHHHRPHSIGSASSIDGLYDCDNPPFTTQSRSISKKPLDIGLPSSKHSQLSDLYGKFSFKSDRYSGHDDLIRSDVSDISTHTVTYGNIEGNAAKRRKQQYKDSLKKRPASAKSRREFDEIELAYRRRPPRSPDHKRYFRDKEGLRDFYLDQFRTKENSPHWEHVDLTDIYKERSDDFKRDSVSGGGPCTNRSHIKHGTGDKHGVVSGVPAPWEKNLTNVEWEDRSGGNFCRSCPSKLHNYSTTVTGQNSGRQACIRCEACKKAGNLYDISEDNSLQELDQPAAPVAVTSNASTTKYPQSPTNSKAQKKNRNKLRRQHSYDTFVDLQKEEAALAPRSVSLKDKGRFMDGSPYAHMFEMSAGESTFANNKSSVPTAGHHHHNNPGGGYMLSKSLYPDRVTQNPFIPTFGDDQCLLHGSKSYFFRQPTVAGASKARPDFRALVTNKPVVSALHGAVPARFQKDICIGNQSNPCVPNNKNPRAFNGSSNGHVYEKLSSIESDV
compound,measurement,setting,value
[Mg+2] [Mg^+2],IC50,hGluN1a + hGluN2Bwt [1],31 ± 3.7 µM
N[C@H](CO)C(=O)O [D-serine],EC50,GluN1,~700 nM
same,increase of the maximal current by D-serine,hGluN1a + hGluN2Bwt [2],~ 35%
"N[C@@H](CCC(=O)O)C(=O)O [Glutamate, glutamate]",Imax Norm. to wt,"hGluN1a + hGluN2Bwt [3]; normalized maximal glutamate current, oocytes",1 ± 0.08; (22)
same,contribution to the total current by excess glutamate >100 μM,hGluN1a + hGluN2Bwt [3]; receptors saturated at 100 μM glutamate,< 15%
same,reduction in EC50,GluN2B-mutant,~ 7 fold
same,EC50,GluN2B-E413G,79 ± 5.3 µM
same,reduction in glutamate potency,GRIN2A mutation D731N,~ 6000 fold
"NCC(=O)O [Glycine, glycine]",EC50,GluN1,[…]
same,EC50,hGluN1a + hGluN2Bwt [4],230 ± 30 nM
C[C@]12N[C@H](Cc3ccccc31)c1ccccc12 [MK-801],10–90% inhibition rate,hGluN1a + hGluN2Bwt [5],8554 ± 827 ms; (24)
same,τoff,hGluN1a + hGluN2Bwt [5]; mono-exponential fit,4590 ± 603 ms; (24)
NCCCNCCCCNCCCN [spermine],EC50,GluN2B-subunit,200 µM
same,potentiation by spermine,"hGluN1a + hGluN2Bwt [6]; 200 μM spermine, pH 6.3",~ 25 fold
same,potentiation by spermine,"hGluN1a + hGluN2Bwt [6]; 200 μM spermine, pH 7.3",~ 70%
same,current with spermine relative to basal glutamate current,"hGluN1a + hGluN2Bwt [6]; 200 μM spermine, pH 7.3, 5 mM glutamate, 100 μM glycine",172%
same,inhibition by higher spermine concentrations,hGluN1a + hGluN2Bwt [6]; pH 7.3,not observed
